Measurements as given in patent US10703746B2, “Mutant IDH1 inhibitors useful for treating cancer” (THE UNITED STATES OF AMERICA, AS REPRESENTED BY THE …, priority 2014, dated 2020).

Experiments:
IDH1 R132H = IDH1 R132H (Homo sapiens, UniProt O75874, R132H); assay: IDH1 R132H enzymatic assay (NADPH depletion coupled to diaphorase/resazurin); format: biochemical
IDH1 R132C = IDH1 R132C (Homo sapiens, UniProt O75874, R132C); assay: IDH1 R132C enzymatic assay (NADPH depletion coupled to diaphorase/resazurin); format: biochemical
Sequence of IDH1 R132C (O75874 whole entry R132C): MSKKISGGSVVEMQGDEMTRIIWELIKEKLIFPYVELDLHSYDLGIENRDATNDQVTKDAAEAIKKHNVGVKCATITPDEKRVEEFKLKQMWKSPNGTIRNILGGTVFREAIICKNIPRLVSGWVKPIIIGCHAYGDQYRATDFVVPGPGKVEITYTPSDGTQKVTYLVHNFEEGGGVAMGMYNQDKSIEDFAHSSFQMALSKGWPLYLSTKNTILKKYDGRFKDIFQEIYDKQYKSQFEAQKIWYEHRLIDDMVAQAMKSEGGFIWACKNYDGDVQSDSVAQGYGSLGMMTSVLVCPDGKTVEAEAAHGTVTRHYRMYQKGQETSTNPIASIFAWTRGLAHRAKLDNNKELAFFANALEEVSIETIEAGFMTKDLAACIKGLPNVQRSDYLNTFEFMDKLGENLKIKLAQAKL
Summary of the method: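 NADPH depletion, read via diaphorase/resazurin coupling, after adding substrate at 0.6 mM α-KG and 0.012 mM NADPH. Beforehand, 0.00032 mg/mL enzyme sat with compound 30 min at room temperature in pH 6.5 potassium phosphate buffer with MgCl2, glycerol and BSA.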

[1] = enzymatic inhibition, IDH1 R132H
[2] = enzymatic inhibition, IDH1 R132C
[3] = IDH1 R132H enzymatic inhibition, IC50 class
[4] = IDH1 R132C enzymatic inhibition, IC50 class

Sequence of IDH1 R132H (O75874 whole entry R132H): as the sequence (O75874 whole entry R132C) above, with C132H counted along it

IC50 (IDH1 R132H; [1]) [nM]	IC50 (IDH1 R132C; [2]) [nM]	IC50 (IDH1 R132H; [3]) [nM]	IC50 (IDH1 R132C; [4]) [nM]	SMILES
5000 to 20000	5000 to 20000	–	–	CC(C)=Cc1c(C(=O)N2CCNCC2)cc(-c2nc(-c3ccc(Cl)cc3)cs2)c(=O)n1-c1ccc[nH]c1=O [Compound 616]
–	–	1000 to 5000	1000 to 5000	CCc1ncc(F)cc1-n1c(C=C(C)C)c(C(=O)N2CCNCC2)cc(-c2nc(-c3ccc(C(F)F)cn3)cs2)c1=O [Compound 619]
–	–	< 300	< 300	CCc1cccc(CC)c1-n1c(C=C(C)C)c(C(=O)N2CCNCC2)cc(-c2nc(-c3ccc(C4CC4)cc3)cs2)c1=O [Compound 620]
–	–	< 300	< 300	CCc1cccc(CC)c1-n1c(C=C(C)C)c(C(=O)N2CCC(NC)CC2)cc(-c2nc(-c3ccc(Cl)cc3)cs2)c1=O [Compound 623]
–	–	< 300	300 to 1000	CCOc1ccc(Cl)cc1-n1c(C=C(C)C)c(C(=O)N2CCNCC2)cc(-c2nc(-c3ccc(C(F)(F)F)nc3)cs2)c1=O [Compound 626]
–	–	< 300	< 300	CCc1cccc(CC)c1-n1c(C=C(C)C)c(C(=O)N2CCCC(N)C2)cc(-c2nc(-c3ccc(Cl)cc3)cs2)c1=O (stereo not shown) [Compound 629]
–	–	< 300	< 300	COc1ccc(F)cc1-n1c(C=C(C)C)c(C(=O)N2CCNCC2)cc(-c2nc(-c3ccc(Cl)cc3)cs2)c1=O [Compound 630]
–	–	< 300	< 300	CCc1cccc(CC)c1-n1c(C=C(C)C)c(C(=O)N2CCNCC2C)cc(-c2nc(-c3ccc(Cl)cc3)cs2)c1=O (stereo not shown) [Compound 631]
–	–	< 300	< 300	CCc1ncc(OC)cc1-n1c(C=C(C)C)c(C(=O)N2CCNCC2)cc(-c2nc(-c3ccc(C(F)(F)F)cc3)cs2)c1=O [Compound 636]
–	–	< 300	300 to 1000	CCOc1ncc(C)cc1-n1c(C=C(C)C)c(C(=O)N2CCNCC2)cc(-c2nc(-c3ccc(C(F)(F)F)nc3)cs2)c1=O [Compound 639]
–	–	< 300	< 300	CCc1cccc(CC)c1-n1c(C=C(C)C)c(C(=O)N2CCN[C@@H](C(=O)O)C2)cc(-c2nc(-c3ccc(C(F)(F)F)cc3)cs2)c1=O [Compound 641]
–	–	< 300	< 300	CCc1cccc(OC)c1-n1c(C=C(C)C)c(C(=O)N2CCNCC2)cc(-c2nc(-c3ccc(Cl)cc3)cs2)c1=O [Compound 642]
–	–	< 300	300 to 1000	COc1ccccc1-n1c(C=C(C)C)c(C(=O)N2CCNCC2)cc(-c2nc(-c3ccc(Cl)cc3)cs2)c1=O [Compound 644]
–	–	< 300	< 300	CCc1cccc(CC)c1-n1c(CC(C)C)c(C(=O)N2CCNCC2)cc(-c2nc(-c3ccc(C(F)(F)F)cc3)cs2)c1=O [Compound 654]
–	–	< 300	< 300	CCc1cccc(F)c1-n1c(C=C(C)C)c(C(=O)N2CCNCC2)cc(-c2nc(-c3ccc(Cl)cc3)cs2)c1=O [Compound 655]
–	–	< 300	< 300	CCc1ccc(C)cc1-n1c(C=C(C)C)c(C(=O)N2CCNCC2)cc(-c2nc(-c3ccc(Cl)cc3)cs2)c1=O [Compound 656]
–	–	< 300	< 300	CCc1cccc(CC)c1-n1c(C=C(C)C)c(C(=O)N2CCNC(C#N)C2)cc(-c2nc(-c3ccc(Cl)cc3)cs2)c1=O (stereo not shown) [Compound 657]
–	–	300 to 1000	< 300	CCc1cccc(CC)c1-n1c(C=C(C)C)c(C(=O)N2CCC3(CCNC3)C2)cc(-c2nc(-c3ccc(Cl)cc3)cs2)c1=O (stereo not shown) [Compound 659]
–	–	300 to 1000	300 to 1000	CCc1cccc(CC)c1-n1c(C(C)(C)F)c(C(=O)N2CCNCC2)cc(-c2nc(-c3ccc(Cl)cc3)cs2)c1=O [Compound 664]
–	–	< 300	< 300	CCOc1ccc(Cl)cc1-n1c(C=C(C)C)c(C(=O)N2CCNCC2)cc(-c2nc(-c3ccc(C(F)(F)F)cc3)cs2)c1=O [Compound 665]
–	–	< 300	< 300	CCc1ccc(Cl)c(CC)c1-n1c(C=C(C)C)c(C(=O)N2CCNCC2)cc(-c2nc(-c3ccc(Cl)cc3)cs2)c1=O [Compound 666]
–	–	< 300	< 300	COc1ncc(C)cc1-n1c(C=C(C)C)c(C(=O)N2CCNCC2)cc(-c2nc(-c3ccc(Cl)cc3)cs2)c1=O [Compound 667]

The remaining lines, values behind:

SMILES	IC50 (IDH1 R132H; [1]) [nM]	IC50 (IDH1 R132C; [2]) [nM]	IC50 (IDH1 R132H; [3]) [nM]	IC50 (IDH1 R132C; [4]) [nM]
CCc1cccc(CC)c1-n1c(CC2CCNCC2)c(C(=O)N2CCNCC2)cc(-c2nc(-c3ccc(Cl)cc3)cs2)c1=O [Compound 615]	> 20000	> 20000	–	–
CCc1cccc(CC)c1N1C(=O)C(c2nc(-c3ccc(Cl)cc3)cs2)CC(CN2CCNCC2)=C1CC(C)C (stereo not shown) [Compound 617]	–	–	1000 to 5000	1000 to 5000
CCc1cccc(CC)c1-n1c(C=C(C)C)c(C(=O)N2CCNCC2CC(C)C)cc(-c2nc(-c3ccc(Cl)cc3)cs2)c1=O (stereo not shown) [Compound 621]	–	–	300 to 1000	< 300
CCc1cccc(CC)c1-n1c(CC2CCCC2)c(C(=O)N2CCNCC2)cc(-c2nc(-c3ccc(Cl)cc3)cs2)c1=O [Compound 622]	–	–	< 300	< 300
CCc1cccc(CC)c1-n1c(CC(C)C)c(C(=O)N2CCNCC2)cc(-c2nc(-c3ccc(Cl)c(C)c3)c(C)s2)c1=O [Compound 624]	–	–	300 to 1000	< 300
CCc1cccc(CC)c1-n1c(CC2CCNC2)c(C(=O)N2CCNCC2)cc(-c2nc(-c3ccc(Cl)cc3)cs2)c1=O (stereo not shown) [Compound 627]	–	–	5000 to 20000	5000 to 20000
CCc1cccc(C)c1-n1c2c(cc(-c3nc(-c4ccc(Cl)cc4)cs3)c1=O)C(=O)CCC2 [Compound 628]	–	–	1000 to 5000	1000 to 5000
CCc1cccc(CC)c1-n1c(CC(C)C)c(C(=O)N2CCNCC2)cc(-c2nc(-c3ccc(Cl)cc3F)c(C)s2)c1=O [Compound 632]	–	–	300 to 1000	300 to 1000
CCc1cccc(CC)c1-n1c(CC(C)C)c(C(=O)N2CCNCC2)cc(-c2nc(-c3ccc(Cl)c(OC)c3)c(C)s2)c1=O [Compound 633]	–	–	300 to 1000	300 to 1000
O=C1CCCc2c1cc(-c1nc(-c3ccc(Cl)cc3)cs1)c(=O)n2-c1ccccc1CO [Compound 634]	–	–	> 20000	5000 to 20000
CCc1cccc(CC)c1-n1c(C=C(C)C)c(C(=O)N2CCCNC(=O)C2)cc(-c2ccn(-c3ccc(Cl)cc3)n2)c1=O [Compound 635]	–	–	< 300	< 300
CCc1cccc(CC)c1-n1c(CC(C)C)c(C(=O)N2CCNCC2)cc(-c2nc(-c3ccc(Cl)cc3Cl)c(C)s2)c1=O [Compound 637]	–	–	300 to 1000	300 to 1000
CCc1cccc(CC)c1-n1c(C=C(C)C)c(C(=O)N2CCNCC2)cc(-c2nn(-c3ccc(Cl)cc3)cc2C)c1=O [Compound 638]	–	–	< 300	1000 to 5000
CCc1cccc(CC)c1-n1c(CC(C)C)c(C(=O)N2CCNCC2)cc(-c2ccn(-c3ccc(C(F)(F)F)cc3)n2)c1=O [Compound 640]	–	–	< 300	< 300
CCc1cccc(CC)c1-n1c(CC(C)C)c(C(=O)N2CCNCC2)cc(-c2coc(-c3ccc(Cl)cc3)n2)c1=O [Compound 643]	–	–	300 to 1000	300 to 1000
CN1CCN(c2ccc(C(F)(F)F)c(-n3c4c(cc(-c5nc(-c6ccc(Cl)cc6)cs5)c3=O)C(=O)CC(C)(C)C4)c2)CC1 [Compound 645]	–	–	1000 to 5000	1000 to 5000

SMILES	IC50 (IDH1 R132H; [1]) [nM]	IC50 (IDH1 R132C; [2]) [nM]	IC50 (IDH1 R132H; [3]) [nM]	IC50 (IDH1 R132C; [4]) [nM]
CCc1cccc(CC)c1-n1c(C=C(C)C)c(C(=O)N2CCNC(C)C2C)cc(-c2nc(-c3ccc(Cl)cc3)cs2)c1=O (stereo not shown) [Compound 646]	–	–	< 300	< 300
CCCC1CNCCN1C(=O)c1cc(-c2nc(-c3ccc(Cl)cc3)cs2)c(=O)n(-c2c(CC)cccc2CC)c1C=C(C)C (stereo not shown) [Compound 648]	–	–	300 to 1000	< 300
O=C1CCCc2c1cc(-c1nc(-c3ccc(Cl)cc3)cs1)c(=O)n2-c1ccc(CO)cc1 [Compound 649]	–	–	> 20000	> 20000
CCc1cccc(CC)c1-n1c(C=C(C)C)c(C(=O)N2CCNC(=O)C2(C)C)cc(-c2nc(-c3ccc(Cl)cc3)cs2)c1=O [Compound 650]	–	–	< 300	< 300
Cc1ccc(CO)cc1-n1c2c(cc(-c3nc(-c4ccc(Cl)cc4)cs3)c1=O)C(=O)CCC2 [Compound 651]	–	–	1000 to 5000	1000 to 5000
COC(=O)c1ccsc1-n1c2c(cc(-c3nc(-c4ccc(Cl)cc4)cs3)c1=O)C(=O)CC(C)(C)C2 [Compound 652]	–	–	300 to 1000	300 to 1000
CCc1cccc(CC)c1-n1c(C=C(C)C)c(C(=O)N2CCNC(C(N)=O)C2)cc(-c2ccn(-c3ccc(Cl)cc3)n2)c1=O (stereo not shown) [Compound 653]	–	–	< 300	< 300
CCc1cccc(CC)c1-n1c(CC(C)C)c(C(=O)N2CCNCC2)cc(-n2cc(-c3ccc(Cl)cc3)cn2)c1=O [Compound 658]	–	–	5000 to 20000	5000 to 20000
CCc1cccc(CC)c1-n1c(C=C(C)C)c(C(=O)N2C(C)CNCC2C(=O)O)cc(-c2nc(-c3ccc(Cl)cc3)cs2)c1=O (stereo not shown) [Compound 660]	–	–	< 300	< 300
COc1ncccc1-n1c2c(cc(-c3nc(-c4ccc(Cl)cc4)cs3)c1=O)C(=O)CC(C)(C)C2 [Compound 661]	–	–	1000 to 5000	300 to 1000
CCc1cccc(CC)c1-n1c(CC(C)C)c(C(=O)N2CCNCC2)cc(-c2nc(-c3ccc(Cl)cc3)c(Cl)s2)c1=O [Compound 662]	–	–	300 to 1000	< 300
COc1ccc(-n2c3c(cc(-c4nc(-c5ccc(Cl)cc5)cs4)c2=O)C(=O)CC(C)(C)C3)c(Cl)c1 [Compound 663]	–	–	> 20000	1000 to 5000
COc1cccc(F)c1-n1c2c(cc(-c3nc(-c4ccc(Cl)cc4)cs3)c1=O)C(=O)CC(C)(C)C2 [Compound 668]	–	–	1000 to 5000	1000 to 5000
COc1ccc(F)cc1-n1c2c(cc(-c3nc(-c4ccc(Cl)cc4)cs3)c1=O)C(=O)CC(C)(C)C2 [Compound 669]	–	–	300 to 1000	300 to 1000
CCc1cccc(CC)c1-n1c(C2CCNCC2)c(C(=O)N2CCNCC2)cc(-c2nc(-c3ccc(Cl)cc3)cs2)c1=O [Compound 670]	–	–	5000 to 20000	> 20000
